US10729659B2, “Nanogel-mediated drug delivery” (The Cleveland Clinic Foundation, priority 2012, dated 2020)
In brackets after ≈: the same amount, converted by molar mass. Where two headings read alike, the source gives them in different places.

Experiments:
[1] = rat model; cited from earlier work
[2] = tested on: BT 459; assay: Sequential treatment, cell viability by MTS assay; format: cell-based; settings: Homo sapiens, dox alone, read-out: IC50 (Dox ng/mL)
Procedure: The efficacy of sequential treatment was tested in the following human breast cancer cell lines: MCF-7/Adr (drug resistant), MCF-7, MDAMB 231 and BT-459. Cells were seeded at 3000 cells per well/0.1 mL in 96-well plates (Microtest Becton Dickinson Labware, Franklin Lakes, N.J.). 24 h post seeding, cells were pretreated with DAC solution/nanogel for 24 h or 48 h and washed with 1×-DPBS. 0.1 mL of media containing dox solution or nanogel was added and incubated in CO2 incubator for 48 h. Cell viability was determined at the end of incubation period using a standard MTS assay (CellTiter 96 Aqueous, Promega, Madison, Wis.). To each well was added 20 μL of reagent, the plates were incubated for 2 h at 37° C. in cell culture incubator, and color intensity was measured at 490 nm using a micro plate reader (Bio-Tek Instrument, Winooski, Vt.). The effect of drug on cell proliferation was calculated as percentage growth of cells with respect to their respective controls. […]
(§1) The interaction between DAC and dox was analyzed using the Calcusyn software program (Biosoft, Ferguson, Mo.) to determine whether the simultaneous/sequential treatment was additive or synergistic.
Data from cell viability assay (MTS) was expressed as the fraction of cells killed by individual drugs or by their combination in drug-treated compared with untreated cells. […]

[3] = tested on: MCF-7/Adr cells; assay: Cell cycle analysis by flow cytometry; format: cell-based, human; settings: DAC 50 ng/mL, dox 1 ng/mL, 48 h and 72 h, vs DAC alone or untreated
Procedure: (§2) Subconfluent cells were left untreated or treated with DAC (50 and 100 ng/mL) and dox (1 ng/mL) alone or in combination (sequential treatment) for 4-96 h. Cells were then trypsinized and then centrifuged at 1,300 rpm for 3 min at 4° C. Cell pellet was washed twice with ice cold 1X DPBS (pH 7.4) and resuspended in propidium iodide-(PI) solution (12.5 mg PI, 250 mg Sodium-Citrate and 250 μL Triton X-100 in 250 mL of water). Cells were then incubated in ice bucket, kept in cold room for 2 h, and DNA content was determined by flow cytometry using a FACScan flow cytometer (Becton Dickinson, San Jose, Calif.).

[4] = tested on: MCF-7 cells; assay: Cell cycle analysis by flow cytometry; format: cell-based, human; settings: DAC 50 ng/mL, dox 1 ng/mL, 48 h and 72 h, vs DAC alone or untreated
Procedure: as §2

[5] = tested on: MCF-7/Adr; assay: Sequential/simultaneous treatment, cell viability by MTS assay; format: cell-based, human; settings: for IC50: Homo sapiens, NCI/ADR-RES
Procedure: The efficacy of sequential treatment was tested in the following human breast cancer cell lines: MCF-7/Adr (drug resistant), MCF-7, MDAMB 231 and BT-459. Cells were seeded at 3000 cells per well/0.1 mL in 96-well plates (Microtest Becton Dickinson Labware, Franklin Lakes, N.J.). 24 h post seeding, cells were pretreated with DAC solution/nanogel for 24 h or 48 h and washed with 1×-DPBS. 0.1 mL of media containing dox solution or nanogel was added and incubated in CO2 incubator for 48 h. Cell viability was determined at the end of incubation period using a standard MTS assay (CellTiter 96 Aqueous, Promega, Madison, Wis.). To each well was added 20 μL of reagent, the plates were incubated for 2 h at 37° C. in cell culture incubator, and color intensity was measured at 490 nm using a micro plate reader (Bio-Tek Instrument, Winooski, Vt.). The effect of drug on cell proliferation was calculated as percentage growth of cells with respect to their respective controls. For simultaneous treatment DAC solution or nanogel, and dox solution or nanogel were added together to cells, and the above mentioned protocol was followed.
as §1
Data from cell viability assay (MTS) was expressed as the fraction of cells killed by individual drugs or by their combination in drug-treated compared with untreated cells. This program is based upon Chou-Talalay method. It calculates combination index (CI) of drugs. From the CI values, synergistic action of drugs can be analysed. The CI equal to 1, indicates the additive effect and CI<1 and CI>1, indicates synergistic and antagonistic activity respectively.

[6] = tested on: dox sensitive cell lines; assay: Dox cell viability by MTS assay, sensitive cell lines; format: cell-based; settings: Homo sapiens; range over sensitive cell lines
Procedure: Cells were seeded at 3000 cells per well/0.1 mL in 96-well plates (Microtest Becton Dickinson Labware, Franklin Lakes, N.J.). […] Cell viability was determined at the end of incubation period using a standard MTS assay (CellTiter 96 Aqueous, Promega, Madison, Wis.). To each well was added 20 μL of reagent, the plates were incubated for 2 h at 37° C. in cell culture incubator, and color intensity was measured at 490 nm using a micro plate reader (Bio-Tek Instrument, Winooski, Vt.). The effect of drug on cell proliferation was calculated as percentage growth of cells with respect to their respective controls. For simultaneous treatment DAC solution or nanogel, and dox solution or nanogel were added together to cells, and the above mentioned protocol was followed.

[7] = tested on: MCF-7/Adr cells; assay: Cellular uptake of dox; format: cell-based, human; settings: dox alone treated MCF-7/Adr cells
Procedure: Drug resistant breast cancer cells were seeded in 24 well plates (1.2×10^6 cells/well). Post 48 h seeding, cells were pre-treated with DAC (50 ng/mL; 24 h); and then incubated with fixed concentration of dox (1 μg/mL) for indicated time points. Post drug incubation cell lysates in RIPA buffer was collected and lyophilized. Dox was extracted from lyophilized cell lysates using methanol as the solvent and analyzed by HPLC.

IC50 ([5]; dox alone, mean ± s.e.m., three experiments, read-out: IC50 (Dox ng/mL)) [ng/mL]	IC50 ([5]; pretreated with DAC 24 h, then dox 48 h, read-out: IC50 (Sequential - Deci + Dox ng/mL)) [ng/mL]	IC50 (Dox ng/mL) ([5]; dox alone, mean ± s.e.m., three experiments) [ng/mL]	Structure (SMILES)	Carcinogenicity [1]	IC50 [2] [ng/mL]	G2/M arrest [3]	G2/M arrest [4]	IC50 [6] [µg/mL]	Incubation time after which drug concentration reached plateau [7] [h]
			Nc1ncn([C@@H]2O[C@H](CO)[C@@H](O)[C@H]2O)c(=O)n1 [5-azacytidine]	carcinogenic					
7380	≤ 1	7385.2 ± 698	COc1cccc2c1C(=O)c1c(O)c3c(c(O)c1C2=O)C[C@@](O)(C(=O)CO)C[C@@H]3O[C@H]1C[C@H](N)[C@H](O)[C@H](C)O1 [Dox, doxorubicin]		102 ± 4.7	no difference	no difference	0.019 to 0.102 (≈ 0.035 to 0.188 µM)	1
